Experimental data reported in US8513226B2, “Simultaneous method for the preparation of a mixture of 3-acetoxy-17-acetamido-16-formyl-androst-5,17-diene and 3-acetoxy-2'-chloro-5-androsteno[17,16-b]pyridine” (Council of Scientific and Industrial Research, priority 2008, dated 2013).
Entries after “also recorded” stand apart in the source; their conditions may differ. Where two headings read alike, the source gives them in different places.

Key:
[1] = tested on: cold restraint stress ulcer in rats; assay: Cold restraint stress induced ulceration; format: in vivo, rat; conditions: for protection of ulceration induced by cold restraint stress: 50 mg/kg body weight
Protocol: Adult rats of either sex, weighing about 200 g were fasted for 24 h with free access to water. Compound 4 (in 0.4% hydroxypropylmethylcellulose, HPMC) were administered 45 min before immobilizing the animals. The rats were immobilized in the restraint cage at 4 °C for 4 h and were sacrificed immediately after the restraint period according to the method of Senay and Levine (E C Senay & R J Levine, Proc. Soc. Exp. Biol. Med. 1967, 124, 1221). The abdomen was cut opened, stomach taken out and incised along the greater curvature to observe the gastric lesions. The ulceration was rated and the ulcer index (UI) scored as described in Wagner et al. (K Wagner, J Nandi, R L King & R A Levine, Dig. Dis. Sci. 1995, 40, 134), the effect of compound 4 being expressed graphically as a function of ulcer index and the result was further expressed as the percent protection of the ulcer formation in comparison to the untreated control group (FIG. 4).

[2] = tested on: rabbit gastric parietal cells; assay: Basal acid secretion (aminopyrine uptake) in gastric parietal cells; format: cell-based; conditions: Oryctolagus cuniculus
Protocol: (§1) Briefly, the technique involves high-pressure perfusion of the stomach in live animal with oxygenated PBS, stripping and mincing the mucosa followed by 2-step proteolytic digestion at 37° C., first with a mixture of protease (0.1 mg/ml) and pronase (1 mg/ml) for 15 min and then the pellet obtained therefrom with collagenase (1 mg/ml) for 30 min. The washed cell pellet containing majority of the gastric cells was layered on top of a two-step gradient of Nycodenz (density 1.05 and 1.075 g/ml) and centrifuged at 150×g for 10 min. Parietal cells enriching in between density of 1.05 and 1.075 interface were collected, washed 3 times with respiratory medium and used for the study. The PC preparations were nearly 90% pure and viable.
(§2) The [^14C]-aminopyrine (115 μCi/mM) was added to the suspension at a concentration of 0.1 mCi/ml, and incubation was continued for another 10 min. One-milliliter aliquots of such PC suspension (˜5×10^6 cells) were further incubated in the presence and the absence of histamine (0.1 mM) for 20 min at 37° C. with slow shaking and oxygen top gassing. At the end of the incubation, the PC suspensions were centrifuged, supernatant carefully aspired off and the pellets solubilized in scintillation fluid containing Triton X-100. The resulting solution was counted in a liquid scintillation counter. The aminopyrine accumulation was determined as the ratio of intra- to extracellular aminopyrine according to Mazzeo et al. (A R Mazzeo, J Nandi & R A Levine, Am. J. Physiol. 1988, 254, G57).

[3] = tested on: pylorus-ligated rats; assay: Gastric secretion in pylorus-ligated rats; format: in vivo, rat
Protocol: The pylorus of each rat was ligated under anesthesia according to the method of Shay et. al. (H Shay, S A Komarov, S S Fels, D Merange, M Grunstein & H Siplet, Gastroenterol. 1945, 4, 43). Each of the animals were then allowed to stand abstained from food and water in a cage. After 4 h, the animals were sacrificed and the stomachs were removed. The gastric contents were collected and centrifuged, and the secretory volume, pH and acid content of the supernatants were measured. The acid content was measured by titrating to pH 7.0 with 0.01 N NaOH using an autotitrator (Metrohm). The total acid content of the drug treated groups was compared to that of control groups, presented graphically in FIG. 5 and thereby, the reduction percentage of acid content was calculated. Compound 4 was suspended in 0.4% HPMC and administered orally at graded dose (10, 20, 50 and 100 mg/kg dose) in different groups 45 min before the ligation. In the control group, the vehicle (0.4% HPMC) was administered.

[4] = tested on: Swiss albino mice; assay: Single-dose acute toxicity evaluation; format: in vivo; conditions: 1 g/kg body weight orally, 15 days observation
Source text: The Compound 4 was checked for mortality of the Swiss albino mice. Five animals of Swiss albino mice strain were used for this purpose. The dosage up to 1 g/kg body weight was given orally per mice and the animals kept up to 15 days under observation. It was observed that the mice were not affected at the dose level of 1 g/kg body weight of Compound 4.

[5] = tested on: indomethacin-induced ulcer in rat; assay: Indomethacin-induced ulcer in rat; format: in vivo; conditions: for protection of indomethacin induced ulcer formation: p.o. 45 min before indomethacin 15 mg/kg p.o.
Protocol: The animals were kept fasting for 24 h before initiating the experiment, drinking water being available ad libitum. The animals were allotted to three groups, each group comprising of six rats. […] Six hours following the administration of indomethacin, the animals were killed, stomachs removed and opened along the greater curvature.

[6] = tested on: rabbit gastric parietal cells; assay: Histamine-stimulated acid secretion (aminopyrine uptake) in gastric parietal cells; format: cell-based; conditions: histamine 0.1 mM
Protocol: as §1, §2

[7] = biological target: H^+,K^+-ATPase (Sus scrofa, UniProt P19156); assay: H+,K+-ATPase (gastric proton pump) inhibition in pig gastric membranes; format: biochemical; conditions: for IC50: read-out: calculated IC50, H^+,K^+-ATPase
Sequence of H^+,K^+-ATPase (P19156 whole entry): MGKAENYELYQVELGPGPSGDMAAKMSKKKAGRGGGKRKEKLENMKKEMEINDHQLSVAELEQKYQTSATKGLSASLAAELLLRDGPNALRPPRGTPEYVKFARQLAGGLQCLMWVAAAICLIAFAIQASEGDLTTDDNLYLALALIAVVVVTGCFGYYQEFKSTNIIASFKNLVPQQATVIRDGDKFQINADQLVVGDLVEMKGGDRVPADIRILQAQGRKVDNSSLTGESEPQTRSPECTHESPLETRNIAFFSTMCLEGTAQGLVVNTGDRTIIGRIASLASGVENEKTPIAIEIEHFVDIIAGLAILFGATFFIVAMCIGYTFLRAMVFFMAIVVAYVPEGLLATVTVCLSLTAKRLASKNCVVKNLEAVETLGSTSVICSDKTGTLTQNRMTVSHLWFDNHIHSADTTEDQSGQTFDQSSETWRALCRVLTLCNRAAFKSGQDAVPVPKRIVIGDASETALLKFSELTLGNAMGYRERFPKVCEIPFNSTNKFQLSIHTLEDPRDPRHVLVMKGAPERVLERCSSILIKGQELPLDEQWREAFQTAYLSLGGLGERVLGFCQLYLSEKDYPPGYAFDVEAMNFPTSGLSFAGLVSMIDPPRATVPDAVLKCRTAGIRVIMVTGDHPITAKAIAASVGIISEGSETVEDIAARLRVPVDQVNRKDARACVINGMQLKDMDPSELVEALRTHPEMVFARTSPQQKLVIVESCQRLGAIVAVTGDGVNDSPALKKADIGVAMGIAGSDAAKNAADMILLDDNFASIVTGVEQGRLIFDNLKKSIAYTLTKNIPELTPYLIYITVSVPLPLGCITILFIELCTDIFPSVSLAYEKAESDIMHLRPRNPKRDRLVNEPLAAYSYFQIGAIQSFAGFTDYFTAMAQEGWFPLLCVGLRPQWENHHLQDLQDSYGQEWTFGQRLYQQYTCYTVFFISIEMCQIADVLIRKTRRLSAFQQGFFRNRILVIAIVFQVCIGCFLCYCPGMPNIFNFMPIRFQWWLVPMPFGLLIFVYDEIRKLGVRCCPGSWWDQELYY
Sequence of H^+,K^+-ATPase (P18434 whole entry partner): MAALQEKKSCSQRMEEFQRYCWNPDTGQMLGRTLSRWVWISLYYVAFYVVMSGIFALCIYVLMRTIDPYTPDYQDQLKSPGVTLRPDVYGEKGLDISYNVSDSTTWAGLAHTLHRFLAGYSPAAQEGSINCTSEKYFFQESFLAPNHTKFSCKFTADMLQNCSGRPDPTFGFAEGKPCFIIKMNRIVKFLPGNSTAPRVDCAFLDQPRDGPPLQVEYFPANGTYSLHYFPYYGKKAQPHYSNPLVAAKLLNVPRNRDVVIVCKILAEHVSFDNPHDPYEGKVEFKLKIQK
Protocol: Pig gastric membranes enriched in apical and tubulovesicular membranes were prepared as described in the literature (S Bandopadhyay, P K Das, M V Wright, J Nandi, D Bhattacharya & T K Ray, J. Biol. Chem. 1987, 262, 5664). The fundic mucosal regions of pig stomach were desquamated and scrapped to collect oxyntic cell-riched fractions. The homogenized tissue was centrifuged at 5000×g for 8 min, the supernatant was layered over 37% sucrose and centrifuged at 100,000×g for 4½ h. The major membrane band appeared in the interface was collected, diluted with homogenizing buffer and recentrifuged at 110,000×g for 90 min. The pellet containing H^+,K^+-ATPase rich apical and tubulovesicular membranes was suspended in appropriate buffer and stored at −80° C. for use as the source of enzyme.
The H^+,K^+-ATPase activity was measured at 37° C. in a 1 ml reaction mixture containing 2 mM MgCl2, 2 mM ATP, 10 mM PIPES (pH 6.8), 20 mM KCl and 10-15 μg membrane protein. […] After incubation for 10 min, the reaction was terminated by addition of 1 ml ice-chilled TCA (14%).
K^+-stimulated activity, referred to as H^+,K^+-ATPase, was calculated as the difference between the activity in presence of Mg^+2 plus K^+ and basal activity (Mg^+-ATPase) in presence of Mg^+2 alone. […] The liberated inorganic phosphate was quantitated according to a reported procedure (H Sanui, Anal. Biochem. 1974, 60, 489) and the effects of 4 and 5 were assessed. The effects are quantitated in terms of percent inhibition of H^+,K^+-ATPase activity, and compared with that of omeprazole.

Question: Which results are given for `CN/C(=N/CCSCc1nc[nH]c1C)NC#N` [Cimetidine, reference compound]?
Answer: protection of ulceration induced by cold restraint stress [1]: 86%; inhibition at 200 µM ([2]; 200 μM): ~10%; inhibition of acid output ([3]; 50 mg/kg): ~80%

Question: How did the “mortality and behavioral abnormality, single-dose acute toxicity” value [4] turn out when `CC(=O)NC1=C(C=O)CC2C3CC=C4CC(OC(C)=O)CCC4(C)C3CCC12C` (stereo not shown) [Compound 4, 3-acetoxy-17-acetamido-16-formyl-androst-5,17-diene] was run?
Answer: No mortality and behavioral abnormality; also recorded: did not show acute toxicity

Question: And the “anti ulcer activity in indomethacin-induced ulcer model (in words)” value ([5]; 10-50 mg/kg b.w.)?
Answer: potent anti ulcer activity

Question: And the “protection of indomethacin induced ulcer formation” value [5]?
Answer: ~75%

Question: And the “protection of ulceration induced by cold restraint stress” value [1]?
Answer: 54%

Question: What about the “antiulcer activity in cold restraint stress ulcer model (in words)” value ([1]; 50 mg/kg body wt.) of the same compound?
Answer: potent antiulcer activity

Question: What about the IC50 ([6]; Oryctolagus cuniculus, read-out: IC50, inhibition of histamine-stimulated acid secretion) of the same compound?
Answer: ~130 µM

Question: What about the “activity compared with cimetidine in inhibiting histamine-stimulated secretion” value [6] of the same compound?
Answer: IC50 value comparable to cimetidine; also recorded: almost equiactive as compared with cimetidine

Question: What about the inhibition at 300 µM ([2]; 300 μM (highest concentration)) of the same compound?
Answer: ~10%

Question: What about the “inhibition of acid output” value ([3]; 50 mg/kg) of the same compound?
Answer: ~33%

Question: And the “inhibition of acid output” value ([3]; 50-100 mg/kg, oral)?
Answer: ~30%

Question: What about the “inhibition of H^+,K^+-ATPase (in words)” value [7] of the same compound?
Answer: dose dependent

Question: And the “nature of inhibition of H^+,K^+-ATPase” value [7]?
Answer: irreversible

Question: What about the “Observation (nature of inhibition)” value ([7]; 10 μM, different protein to inhibitor ratio) of the same compound?
Answer: Irreversible

Question: What about the “Observation (nature of inhibition)” value ([7]; 10 μM, function of preincubation time) of the same compound?
Answer: Irreversible

Question: And the inhibition at 10 µM ([7]; 10 μM, preincubation time 0 min, read-out: % Inhibition of H^+, K^+-ATPase)?
Answer: 2%

Question: What about the inhibition at 10 µM ([7]; 10 μM, preincubation time 30 min, read-out: % Inhibition of H^+, K^+-ATPase) of the same compound?
Answer: 56%

Question: What about the inhibition at 10 µM ([7]; 10 μM, protein concentration 5 μg/assay, read-out: % Inhibition of H^+, K^+-ATPase) of the same compound?
Answer: 75%

Question: What about the inhibition at 10 µM ([7]; 10 μM, protein concentration 20 μg/assay, read-out: % Inhibition of H^+, K^+-ATPase) of the same compound?
Answer: 57%

Question: What about the inhibition at 1 µM ([7]; concentration 1 μM) of the same compound?
Answer: 7%

Question: And the inhibition at 5 µM ([7]; concentration 5 μM)?
Answer: 20%

Question: And the inhibition at 10 µM ([7]; concentration 10 μM, read-out: % Inhibition H^+, K^+-ATPase)?
Answer: 47%

Question: And the inhibition at 100 µM ([7]; concentration 100 μM)?
Answer: 75%

Question: What about the IC50 [7] of the same compound?
Answer: 18 µM

Question: Which results are given for `CC(=O)O[C@H]1CC[C@@]2(C)C(=CC[C@@H]3[C@@H]2CC[C@]2(C)c4nc(Cl)ccc4C[C@@H]32)C1` [Compound 5, 3-acetoxy-2′-chloro-5-androsteno[17,16-b]pyridine]?
Answer: inhibition of H^+,K^+-ATPase (in words) [7]: nominal; % Inhibition H^+, K^+-ATPase ([7]; concentration 1 μM): 2%; % Inhibition H^+, K^+-ATPase ([7]; concentration 10 μM): 37%; % Inhibition H^+, K^+-ATPase ([7]; concentration 100 μM): 57%

Question: Which results are given for `COc1ccc2[nH]c([S+]([O-])Cc3ncc(C)c(OC)c3C)nc2c1` (stereo not shown) [Omeprazole, 5-methoxy-2-[(4-methoxy-3,5-dimethyl-2-pyridinyl)-methyl]sulfinyl-1H-benzimidazole, reference compound]?
Answer: protection of indomethacin induced ulcer formation [5]: ~90%; inhibition at 20 µM ([2]; 20 μM): 80 to 90%; inhibition at 3 µM ([7]; concentration 3 μM): 20%; inhibition at 30 µM ([7]; concentration 30 μM): 80%; inhibition of H^+,K^+-ATPase ([7]; concentration range 3 μM and 30 μM): 20-80%; potency relative to 4 (H^+,K^+-ATPase) ([7]; from IC50 values): about three times more potent than 4; IC50 [7]: ~6 µM
